Test results: patent US20230257385A1, “SALT AND SOLID FORMS OF TABERNANTHALOG” (priority 2021, published 2023)
Counter-ions that a name gives are not always drawn.

Legend:
Assay type in all cases: physicochemical
[1] = Dynamic vapour sorption (DVS) of selected salts (Example 8)
Method in brief: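 Sorption/desorption isotherms on 20–50 mg sample at 25°C after 60 min at 0% RH: 5% steps to 30%, 10% steps to 90%, then reverse. Equilibrium criterion dm/dt 0.002%/min; kinetic and isotherm curves derived.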

[2] = DVS analyses of sorbate salt Form A / Form C (Example 10)
Excerpt: DVS analyses of Form A (Performed on batch reference: Experiment 11-Sample -A1) To determine whether Form A underwent form change at high % RH, DVS residues of Form A, from 0 to 80% RH and 0 to 90% RH, were examined. The specimens were equilibrated to constant mass, at 80% and 90% RH set-points, removed, placed in a capped vial, and analysed by XRPD and DSC. Based on the SC-XRD at 100 K, no regular voids in the crystal structure were large enough to accommodate non-crystal-bonded, molecular water with minimum probe radius of 1.4 Å.
The moisture sorption properties of the feed API were analysed by DVS Intrinsic instrument (Surface Measurement System). Approximately 20 to 50 mg of API was weighed onto an aluminium pan and loaded into the instrument equilibrated at 25° C. The sample was equilibrated under a dry atmosphere (0% relative humidity) for 60 minutes, before increasing the humidity from 0% to 30% at 5% step increment and from 30% to 90% at 10% step increment. A desorption cycle was also applied from 90% to 30% (10% step decrement) and from 30% to 0% (5% step decrement). A rate of change in mass per time unit (dm/dt) of 0.002%/min was set as the equilibrium parameter. Kinetic and isotherm graphs were calculated.
5. DVS Analyses: 0% to 90% DVS Mass Per Unit Time Equilibrated at Dm/Dt (0.0002%/Min)

[3] = Stability panel of salts, open vial / double-bagged vial, t=5 d and 10 d; settings: storage conditions not given
Excerpt: FIG. 797 depicts the overlay of, from top to bottom, XRPD of Experiment 1-Sample A2 (Form A), Experiment 10-Sample A1 (5 days, open vial Pattern #2), Experiment 10-Sample A2 (10 days, open vial, Pattern #2), Experiment 10-Sample B1 (5 days, double-bagged vial, Form A) and Experiment 10-Sample B2 (10 days, double-bagged vial, Pattern #2).

[4] = SIF buffer solubility panel (FaSSIF, FeSSIF, FaSSGF)

COc1ccc2c3c([nH]c2c1)CCN(C)CC3 [tabernanthalog sorbate salt]
DVS sorption/desorption isotherm ([1]; 0 to 90 to 0% RH, 25° C., dm/dt 0.002%/min): slightly hygroscopic up to 80% RH | DVS 0 to 90 to 0% RH (dm/dt <0.002%), mass change ([1]; desorption, 0.0% RH): −0.06% | DVS mass change ([1]; desorption, 0.0% RH, listed as tabernanthalog sorbate salt (Form A)): 0.06% | DVS mass change ([1]; desorption, 0.0% RH, listed as tabernanthalog sorbate salt (Form I)): −0.06% | DVS 0 to 90 to 0% RH (dm/dt <0.002%), mass change ([1]; desorption, 5.0% RH): −0.05% | DVS mass change ([1]; desorption, 5.0% RH, listed as tabernanthalog sorbate salt (Form A)): 0.05% | DVS mass change ([1]; desorption, 5.0% RH, listed as tabernanthalog sorbate salt (Form I)): −0.05% | DVS 0 to 90 to 0% RH (dm/dt <0.002%), mass change ([1]; desorption, 10.0% RH): −0.04% | DVS mass change ([1]; desorption, 10.0% RH, listed as tabernanthalog sorbate salt (Form A)): 0.04% | DVS mass change ([1]; desorption, 10.0% RH, listed as tabernanthalog sorbate salt (Form I)): −0.04% | DVS 0 to 90 to 0% RH (dm/dt <0.002%), mass change ([1]; desorption, 15.0% RH): −0.03% | DVS mass change ([1]; desorption, 15.0% RH, listed as tabernanthalog sorbate salt (Form A)): 0.03% | DVS mass change ([1]; desorption, 15.0% RH, listed as tabernanthalog sorbate salt (Form I)): −0.03% | DVS 0 to 90 to 0% RH (dm/dt <0.002%), mass change ([1]; desorption, 20.0% RH): −0.02% | DVS mass change ([1]; desorption, 20.0% RH, listed as tabernanthalog sorbate salt (Form A)): 0.02% | DVS mass change ([1]; desorption, 20.0% RH, listed as tabernanthalog sorbate salt (Form I)): −0.02% | DVS 0 to 90 to 0% RH (dm/dt <0.002%), mass change ([1]; desorption, 25.0% RH): −0.007% | DVS mass change ([1]; desorption, 25.0% RH, listed as tabernanthalog sorbate salt (Form A)): 0.00% | DVS mass change ([1]; desorption, 25.0% RH, listed as tabernanthalog sorbate salt (Form I)): −0.007% | DVS 0 to 90 to 0% RH (dm/dt <0.002%), mass change ([1]; desorption, 30.0% RH): 0.00% | DVS mass change ([1]; desorption, 30.0% RH): 0.00% | DVS 0 to 90 to 0% RH (dm/dt <0.002%), mass change ([1]; desorption, 40.0% RH): 0.03% | DVS mass change ([1]; desorption, 40.0% RH): 0.03% | DVS 0 to 90 to 0% RH (dm/dt <0.002%), mass change ([1]; desorption, 50.0% RH): 0.06% | DVS mass change ([1]; desorption, 50.0% RH): 0.06% | DVS 0 to 90 to 0% RH (dm/dt <0.002%), mass change ([1]; desorption, 60.0% RH): 0.18% | DVS mass change ([1]; desorption, 60.0% RH): 0.18% | DVS 0 to 90 to 0% RH (dm/dt <0.002%), mass change ([1]; desorption, 70.0% RH): 0.30% | DVS mass change ([1]; desorption, 70.0% RH): 0.30% | DVS 0 to 90 to 0% RH (dm/dt <0.002%), mass change ([1]; desorption, 80.0% RH): 0.48% | DVS mass change ([1]; desorption, 80.0% RH): 0.48% | DVS 0 to 90 to 0% RH (dm/dt <0.002%), mass change ([1]; desorption, 90.0% RH): 0.98% | DVS mass change ([1]; desorption, 90.0% RH): 0.98% | DVS 0 to 90 to 0% RH (dm/dt <0.002%), mass change ([1]; sorption, 0.0% RH): 0.00% | DVS mass change ([1]; sorption, 0.0% RH, dm/dt<0.002%): 0.00% | DVS 0 to 90 to 0% RH (dm/dt <0.002%), mass change ([1]; sorption, 5.0% RH): 0.0% | DVS mass change ([1]; sorption, 5.0% RH): 0.0% | DVS 0 to 90 to 0% RH (dm/dt <0.002%), mass change ([1]; sorption, 10.0% RH): 0.01% | DVS mass change ([1]; sorption, 10.0% RH): 0.01% | DVS 0 to 90 to 0% RH (dm/dt <0.002%), mass change ([1]; sorption, 15.0% RH): 0.01% | DVS mass change ([1]; sorption, 15.0% RH): 0.01% | DVS 0 to 90 to 0% RH (dm/dt <0.002%), mass change ([1]; sorption, 20.0% RH): 0.02% | DVS mass change ([1]; sorption, 20.0% RH): 0.02% | DVS 0 to 90 to 0% RH (dm/dt <0.002%), mass change ([1]; sorption, 25.0% RH): 0.03% | DVS mass change ([1]; sorption, 25.0% RH): 0.03% | DVS 0 to 90 to 0% RH (dm/dt <0.002%), mass change ([1]; sorption, 30.0% RH): 0.03% | DVS mass change ([1]; sorption, 30.0% RH): 0.03% | DVS 0 to 90 to 0% RH (dm/dt <0.002%), mass change ([1]; sorption, 40.0% RH): 0.05% | DVS mass change ([1]; sorption, 40.0% RH): 0.05% | DVS 0 to 90 to 0% RH (dm/dt <0.002%), mass change ([1]; sorption, 50.0% RH): 0.07% | DVS mass change ([1]; sorption, 50.0% RH): 0.07% | DVS 0 to 90 to 0% RH (dm/dt <0.002%), mass change ([1]; sorption, 60.0% RH): 0.10% | DVS mass change ([1]; sorption, 60.0% RH): 0.10% | DVS 0 to 90 to 0% RH (dm/dt <0.002%), mass change ([1]; sorption, 70.0% RH): 0.14% | DVS mass change ([1]; sorption, 70.0% RH): 0.14% | DVS 0 to 90 to 0% RH (dm/dt <0.002%), mass change ([1]; sorption, 80.0% RH): 0.21% | DVS mass change ([1]; sorption, 80.0% RH): 0.21% | DVS 0 to 90 to 0% RH (dm/dt <0.002%), mass change ([1]; sorption, 90.0% RH): 0.98% | DVS mass change ([1]; sorption, 90.0% RH): 0.98% | DVS isotherm ([2]; 0% to 90% DVS, mass per unit time equilibrated at dm/dt (0.0002%/min)): slightly hygroscopic up to 80% RH | DVS 0 to 90 to 0% RH (dm/dt <0.002%) ([2]; RH 0.0, falling leg (90 to 0)): 0.0 (0.06%) | DVS 0 to 90 to 0% RH (dm/dt <0.002%) ([2]; RH 0.0, rising leg (0 to 90)): DVS 0 to 90 to 0% RH (dm/dt <0.002%): 0.0 (0.00%), | DVS 0 to 90 to 0% RH (dm/dt <0.002%) ([2]; RH 5.0, falling leg (90 to 0)): 0.05% | DVS 0 to 90 to 0% RH (dm/dt <0.002%) ([2]; RH 5.0, rising leg (0 to 90)): 0.0% | DVS 0 to 90 to 0% RH (dm/dt <0.002%) ([2]; RH 10.0, falling leg (90 to 0)): 0.04% | DVS 0 to 90 to 0% RH (dm/dt <0.002%) ([2]; RH 10.0, rising leg (0 to 90)): 0.01% | DVS 0 to 90 to 0% RH (dm/dt <0.002%) ([2]; RH 15.0, falling leg (90 to 0)): 0.03% | DVS 0 to 90 to 0% RH (dm/dt <0.002%) ([2]; RH 15.0, rising leg (0 to 90)): 0.01% | DVS 0 to 90 to 0% RH (dm/dt <0.002%) ([2]; RH 20.0, falling leg (90 to 0)): 0.02% | DVS 0 to 90 to 0% RH (dm/dt <0.002%) ([2]; RH 20.0, rising leg (0 to 90)): 0.02% | DVS 0 to 90 to 0% RH (dm/dt <0.002%) ([2]; RH 25.0, falling leg (90 to 0)): 0.00% | DVS 0 to 90 to 0% RH (dm/dt <0.002%) ([2]; RH 25.0, rising leg (0 to 90)): 0.03% | DVS 0 to 90 to 0% RH (dm/dt <0.002%) ([2]; RH 30.0, falling leg (90 to 0)): 0.00% | DVS 0 to 90 to 0% RH (dm/dt <0.002%) ([2]; RH 30.0, rising leg (0 to 90)): 0.03% | DVS 0 to 90 to 0% RH (dm/dt <0.002%) ([2]; RH 40.0, falling leg (90 to 0)): 0.03% | DVS 0 to 90 to 0% RH (dm/dt <0.002%) ([2]; RH 40.0, rising leg (0 to 90)): 0.05% | DVS 0 to 90 to 0% RH (dm/dt <0.002%) ([2]; RH 50.0, falling leg (90 to 0)): 0.06% | DVS 0 to 90 to 0% RH (dm/dt <0.002%) ([2]; RH 50.0, rising leg (0 to 90)): 0.07% | DVS 0 to 90 to 0% RH (dm/dt <0.002%) ([2]; RH 60.0, falling leg (90 to 0)): 0.18% | DVS 0 to 90 to 0% RH (dm/dt <0.002%) ([2]; RH 60.0, rising leg (0 to 90)): 0.10% | DVS 0 to 90 to 0% RH (dm/dt <0.002%) ([2]; RH 70.0, falling leg (90 to 0)): 0.30% | DVS 0 to 90 to 0% RH (dm/dt <0.002%) ([2]; RH 70.0, rising leg (0 to 90)): 0.14% | DVS 0 to 90 to 0% RH (dm/dt <0.002%) ([2]; RH 80.0, falling leg (90 to 0)): 0.48% | DVS 0 to 90 to 0% RH (dm/dt <0.002%) ([2]; RH 80.0, rising leg (0 to 90)): 0.21% | DVS 0 to 90 to 0% RH (dm/dt <0.002%) ([2]; RH 90.0, falling leg (90 to 0)): 0.98% | DVS 0 to 90 to 0% RH (dm/dt <0.002%) ([2]; RH 90.0, rising leg (0 to 90)): 0.98% | form of specimens retrieved post DVS (XRPD) ([2]; at 0%, 80% and 90% RH): consistent with Form A | water affinity ([2]; up to 90% RH (DVS)): ca. 1 % w/w | CP after stability storage ([3]; end value (minimal reduction in CP)): 99.70 % area | CP before stability storage ([3]; starting value): 99.76 % area | solubility in FaSSGF ([4]; FaSSGF, 37° C., up to 24 h (timepoints t=0, 1 h, 3 h, 6 h, 24 h)): remained suspended | disproportionation in the SIF buffers ([4]; SIF buffers): no observed disproportionation | solubility in the SIF buffers ([4]; SIF buffers overall): highly soluble in the SIF buffers (apart from FaSSGF)
